Test results from patent publication US20160068843A1 (priority 2012, published 2016).

Test system: H1N1 strain (A/California/07/09 (H1N1)pdm09)
Parameters: species or system mice
Details: mouse, in vivo

For `CCOC(=O)C1=C[C@@H](OC(CC)CC)[C@H](NC(C)=O)[C@@H](N)C1` [Tamiflu], the “survival compared with siRNA combination” value was “equivalent”.
